Experimental data as given in patent US6455540B1, “Methods of use of quinolone compounds against anaerobic pathogenic bacteria” (priority 1999, dated 2002).

Tests used:
Assay in all cases: Agar dilution MIC
[1] = test system: Fusobacterium spp. group 2; type: cell-based, Fusobacterium mortiferum, necrogenes, ulcerans; details: 12 isolates
Porphyromonas canoris = type: cell-based; details: 10 isolates
Clostridium ramosum = type: cell-based; details: 10 isolates
[2] = test system: Fusobacterium spp group 1; type: cell-based; details: 19 isolates
[3] = test system: Peptostreptococcus micros; type: cell-based; details: 12 isolates
[4] = test system: Prevotella denticola/loeschii group; type: cell-based; details: 6 isolates
Prevotella bivia = type: cell-based; details: 21 isolates
[5] = test system: Actinomyces odontolyticus; type: cell-based; details: 10 isolates
[6] = test system: Porphyromonas asaccharolyticus; type: cell-based, Porphyromonas asaccharolytica; details: 11 isolates
[7] = test system: Prevotella buccae-oris group; type: cell-based; details: 22 isolates
[8] = test system: Clostridium clostridioforme; type: cell-based; details: 11 isolates
Prevotella intermedia = type: cell-based; details: 11 isolates
Fusobacterium varium = type: cell-based; details: 17 isolates
[9] = test system: Peptostreptococcus magnus; type: cell-based; details: 13 isolates
Clostridium inocuum = type: cell-based, Clostridium innocuum; details: 11 isolates
Porphyromonas gingivalis = type: cell-based; details: 13 isolates
Bacteroides tectum = type: cell-based; details: 22 isolates
[10] = test system: Peptostreptococcus asaccharolyticus; type: cell-based; details: 11 isolates
[11] = test system: Anaerobiospirillum succiniciproducens; type: cell-based; details: 3 isolates
Fusobacterium russii = type: cell-based
[12] = test system: Peptostreptococcus prevotii; type: cell-based; details: 9 isolates
Bacteroides gracilis = type: cell-based, Bacteroides gracilis (Campylobacter gracilis); details: 11 isolates
Clostridium dfficile = type: cell-based, Clostridium difficile; details: 14 isolates
[13] = test system: Prevotella melaninogenica; type: cell-based; details: 12 isolates
Veillonella spp. = type: cell-based; details: 24 isolates
Bilophila wadsworthia = type: cell-based; details: 16 isolates; agar supplemented with pyruvate
Actinomyces israelii = type: cell-based; details: 6 isolates
[14] = test system: Prevotella heparinolytica; type: cell-based; details: 16 isolates
[15] = test system: Anaerobiospirillum thomasii; type: cell-based; details: 13 isolates

## Amoxicillin clavulanate
[1]
  Minimal Inhibitory Concentration 50% (MIC50): 1 µg/mL
  Minimal Inhibitory Concentration 90% (MIC90): 2 µg/mL
Porphyromonas canoris
  Minimal Inhibitory Concentration 90% (MIC90): 0.03 µg/mL
Clostridium ramosum
  Minimal Inhibitory Concentration 50% (MIC50): 0.06 µg/mL
  Minimal Inhibitory Concentration 90% (MIC90): 0.25 µg/mL
  Minimal Inhibitory Concentration Range: 0.06 to 0.25 µg/mL
[2]
  Minimal Inhibitory Concentration 50% (MIC50): 0.06 µg/mL
[3]
  Minimal Inhibitory Concentration 50% (MIC50): 0.03 µg/mL
  Minimal Inhibitory Concentration Range: 0.03 to 0.125 µg/mL
[4]
  Minimal Inhibitory Concentration 50% (MIC50): 0.06 µg/mL
  Minimal Inhibitory Concentration Range: 0.03 to 0.5 µg/mL
Prevotella bivia
  Minimal Inhibitory Concentration 50% (MIC50): 0.5 µg/mL
  Minimal Inhibitory Concentration 90% (MIC90): 4 µg/mL
  Minimal Inhibitory Concentration Range: 0.06 to 4 µg/mL
[5]
  Minimal Inhibitory Concentration 90% (MIC90): 0.25 µg/mL
  Minimal Inhibitory Concentration Range: 0.06 to 0.125 µg/mL
[6]
  Minimal Inhibitory Concentration 90% (MIC90): 0.03 µg/mL
[7]
  Minimal Inhibitory Concentration 50% (MIC50): 0.25 µg/mL
  Minimal Inhibitory Concentration 90% (MIC90): 1 µg/mL
  Minimal Inhibitory Concentration Range: 0.125 to 2 µg/mL
[8]
  Minimal Inhibitory Concentration 50% (MIC50): 0.5 µg/mL
  Minimal Inhibitory Concentration 90% (MIC90): 1 µg/mL
  Minimal Inhibitory Concentration Range: 0.5 to 8 µg/mL
Prevotella intermedia
  Minimal Inhibitory Concentration 50% (MIC50): 0.03 µg/mL
  Minimal Inhibitory Concentration Range: 0.03 to 0.5 µg/mL
Fusobacterium varium
  Minimal Inhibitory Concentration 50% (MIC50): 2 µg/mL
  Minimal Inhibitory Concentration 90% (MIC90): 4 µg/mL
  Minimal Inhibitory Concentration Range: 0.125 to 4 µg/mL
[9]
  Minimal Inhibitory Concentration 50% (MIC50): 0.03 µg/mL
  Minimal Inhibitory Concentration Range: 0.03 to 1 µg/mL
Clostridium inocuum
  Minimal Inhibitory Concentration 50% (MIC50): 0.5 µg/mL
  Minimal Inhibitory Concentration 90% (MIC90): 0.5 µg/mL
  Minimal Inhibitory Concentration Range: 0.5 to 2 µg/mL
Porphyromonas gingivalis
  Minimal Inhibitory Concentration 90% (MIC90): 0.06 µg/mL
Bacteroides tectum
  Minimal Inhibitory Concentration 50% (MIC50): 0.06 µg/mL
  Minimal Inhibitory Concentration 90% (MIC90): 0.5 µg/mL
  Minimal Inhibitory Concentration Range: 0.03 to 0.5 µg/mL
[10]
  Minimal Inhibitory Concentration 50% (MIC50): 0.03 µg/mL
  Minimal Inhibitory Concentration Range: 0.03 to 1 µg/mL
[11]
  Minimal Inhibitory Concentration 50% (MIC50): 0.25 µg/mL
  Minimal Inhibitory Concentration Range: 0.25 to 0.5 µg/mL
Fusobacterium russii
  Minimal Inhibitory Concentration 50% (MIC50): 0.06 µg/mL
[12]
  Minimal Inhibitory Concentration 50% (MIC50): 0.03 µg/mL
Bacteroides gracilis
  Minimal Inhibitory Concentration 50% (MIC50): 0.5 µg/mL
  Minimal Inhibitory Concentration 90% (MIC90): 2 µg/mL
Clostridium dfficile
  Minimal Inhibitory Concentration 50% (MIC50): 1 µg/mL
  Minimal Inhibitory Concentration 90% (MIC90): 1 µg/mL
  Minimal Inhibitory Concentration Range: 0.5 to 1 µg/mL
[13]
  Minimal Inhibitory Concentration 50% (MIC50): 2 µg/mL
  Minimal Inhibitory Concentration 90% (MIC90): 4 µg/mL
  Minimal Inhibitory Concentration Range: 0.03 to 16 µg/mL
Veillonella spp.
  Minimal Inhibitory Concentration 50% (MIC50): 0.5 µg/mL
  Minimal Inhibitory Concentration 90% (MIC90): 2 µg/mL
Bilophila wadsworthia
  Minimal Inhibitory Concentration 50% (MIC50): 2 µg/mL
  Minimal Inhibitory Concentration 90% (MIC90): 4 µg/mL
  Minimal Inhibitory Concentration Range: 1 to 4 µg/mL
Actinomyces israelii
  Minimal Inhibitory Concentration 50% (MIC50): 0.03 µg/mL
  Minimal Inhibitory Concentration Range: 0.03 to 1 µg/mL
[14]
  Minimal Inhibitory Concentration 90% (MIC90): 0.25 µg/mL
  Minimal Inhibitory Concentration Range: 0.06 to 0.25 µg/mL
[15]
  Minimal Inhibitory Concentration 90% (MIC90): 0.25 µg/mL
  Minimal Inhibitory Concentration Range: 0.125 to 0.25 µg/mL
